Data reported in patent US6716824B1, “Treatment of pancreatic adenocarcinoma by cytotoxic gene therapy” (priority 1999, dated 2004).

Legend:
F9 cells = assay: Ganciclovir dose response curve, untransfected cells, MTS assay; assay type: cell-based, mouse; details: n=8
Procedure: (§1) Dose response curves with GCV for untransfected NIT-1 and F9 (control) cells were performed prior to cytoxicity studies with genetic constructs. NIT-1 cells were plated into a ninety-six well plate at a density of 5,000 cells per well and treated with GCV (0.1 to 2.5 μg/ml) to determine a dose response curve to GCV alone. The cells were treated daily for five days and cell viability was ascertained with an MTS assay. […] The GCV toxicity dose response curve for F9 cells resembled other cell lines (FIG. I B). […] Note that at concentrations of GCV 0.25 μg/ml and higher a significant decrease in cell survival is observed, n=8, *p<0.05, Unpaired Student t-test.

NIT-1 cells = assay: as above; assay type: cell-based, mouse; details: untransfected NIT-1 cells
Procedure: as §1

A549 cells = assay: as above; assay type: cell-based, human; details: five days
Procedure: (§2) PANC-1, CAPAN-1 MIA-1 and A549 cells were plated into a ninety-six well plate at a density of 5,000 cells per well and given between 0 to 500 μg/ml of GCV to determine a dose response curve to GCV alone. The cells were treated for five days and cell viability was ascertained with an MTS assay. Results were plotted on a graph as OD 490 nm vs. GCV concentration.

CAPAN-1 cells = assay: as above; assay type: cell-based, human; details: untransfected CAPAN-1 cells
Procedure: as §2

MIA-1 cells = assay: as above; assay type: cell-based, human; details: untransfected MIA-1 cells, five days
Procedure: as §2

PANC-1 cells = assay: as above; assay type: cell-based, human; details: untransfected PANC-1 cells
Procedure: as §2

PANC-1 tumors = assay: Treatment of human ductal pancreatic adenocarcinoma tumors in vivo, ICR/scid mice injected ip with PANC-1 cells; parameters: species or system mouse; details: PANC-1 tumors in ICR/scid mice, with GCV 40 mg/kg ip 7 days
Procedure: The effectiveness of RIPlacZ and RIP-tk gene constructs against PANC-1 was then studied in vivo using a SCID mouse model. SCID mice are immunodeficient and will not reject a human pancreatic cancer cell line. PANC-1 cells were injected intraperitoneally and tumors were visible by day 24. Once the model was established in the laboratory, the mice were treated with the gene therapy beginning at day 24 post-tumor-injection.
Six mice received seven days of PBS IP.
Three additional mice inoculated with PANC-1 cells received the RIPlacZ gene and were sacrificed thirty-six hours later.
Additional injected mice with tumors (n=3) received RIPlacZ and their tissues were fixed and stained with X-gal. Study endpoints consisted of monitoring tumor size and the presence of blue cells after X-gal staining.

NIT-1 cell tumors = assay: Treatment of β-cell adenomas (insulinomas) in vivo, ICR/scid mice injected IP with NIT-1 cells; details: ICR/scid mice with NIT-1 cells; genes via liposomes IP day 31, GCV 40 mg/kg IP seven days
Procedure: To estimate tumor growth blood glucose was measured from the tail vein using a glucometer every other day.
Twenty-seven female ICR/scid mice, age 6-10 weeks old underwent intraperitoneal injections of 5×10^6 NIT-1 cells and nine female ICR/scid mice, age 6-10 weeks old underwent intraperitoneal injections of PBS. At day 31, the mice were randomized to receive either the RIP-tk gene, the RIPlacZ gene, or nothing. The RIP-lac-Z construct served both as a control and to localize gene expression. The genes were delivered via liposomes IP (liposomes provided by Dr. Nancy Smyth-Templeton Center for Gene Therapy and Department of Cell Biology, Baylor College of Medicine) and mixed as described (Smyth-Templeton N, et al., 15 Nature Biotechnology 647-652 (1997)). Six mice were randomized to receive the RIP-tk gene followed by seven days of GCV (40 mg/kg IP). Six mice were randomized to receive the RIP-lacZ gene followed by seven days of GVC (40 mg/kg IP). Six mice were randomized to receive PBS followed by seven days of GCV (40 mg/kg IP). Six mice that were inoculated with NIT-1 cells were randomized to receive seven days of PBS. […]
In another murine hypoglycemic tumor model, 5×10^6 NIT-1 cells (or PBS) were injected intraperitoneally (IP) into ICR/scid mice (n=12 per group). […] Blood glucose values, animal survival, and blue cells after X-gal staining were recorded.

Q: With `Nc1nc(O)c2ncn(COC(CO)CO)c2n1` [GCV, Ganciclovir] as the compound, how does the “GCV toxicity dose response (in words)” value (F9 cells) read?
A: resembles that of other published cell lines

Q: What about the “maximum dose of GCV one can use to treat cells in culture” value (“maximum dose of GCV one can use” below) (NIT-1 cells) of the same compound?
A: 0.20 µg/mL

Q: And the “GCV dosage significantly decreasing cell OD 490” value (A549 cells)?
A: greater than 50 μg/ml

Q: And the “maximum dose of GCV one can use” value (CAPAN-1 cells)?
A: 15 µg/mL

Q: What about the “GCV dosage significantly decreasing cell OD 490” value (CAPAN-1 cells; five days) of the same compound?
A: greater than 20 μg/ml

Q: And the “GCV dosage significantly decreasing cell OD 490” value (MIA-1 cells)?
A: greater than 20 μg/ml

Q: And the “maximum dose of GCV one can use” value (PANC-1 cells)?
A: 20 µg/mL

Q: And the “GCV dosage significantly decreasing cell OD 490” value (PANC-1 cells; five days, n=8)?
A: greater than 50 μg/ml

Q: What about the “tumor burden / tumor size (in words)” value (PANC-1 tumors) of the same compound?
A: developed large peri-pancreatic intraperitoneal tumors

Q: And the blood glucose levels (NIT-1 cell tumors)?
A: rapid decline in blood glucose levels
